From patent US20250314668A1, “DNAZYMES FOR SENSING AND IMAGING TARGET MOLECULES” (BOARD OF REGENTS, THE UNIVERSITY OF TEXAS SYSTEM, priority 2024, published 2025)
In the oligonucleotide strings, read from the 5' end, every base follows the letter of its sugar. An asterisk marks phosphorothioate; unmarked linkages are phosphodiester. Other units and linkages are bracketed, terminal groups are in braces. A string of capitals states the bases alone. d = 2'-deoxy (DNA); r = 2'-OH (RNA)

B1: Cu^+ DNAzyme: substrate strand Cu1 aS annealed with enzyme strand Cu1 aE (nucleic acid)
chain 1: AGCTTCTTTCTAATACGGCTTACCAC
chain 2: GTGGTAAGCCTGGGCCTCTTTCTTTTTAAGAAAGAAC
modifications: DNA, backbone not given here; Cy5 on substrate, Iowa Black RQ on enzyme, further chemistry not fully specified
notes: substrate strand Cu1 aS annealed with enzyme strand Cu1 aE

What was measured:
Assay type in all cases: biochemical
[1] = Fluorescence based activity assay of Cu^2+ sensor; settings: fluorescence at 520 nm, 30 min
Procedure: (§1) Fluorescence based activity assay: For Cu^+ sensor, […] of Cu1 aS Cy5 and 9 µM of Cu1 aE Q were annealed in a buffer of 50 mM Bis-Tris, 150 mM NaCl, pH 7.5. For each test, 2 μL of the annealed sensor was diluted into 194 μL of buffer (50 mM Bis-Tris, 150 mM NaCl, pH 7.5), and 2 μL of 5 mM ascorbate was added. Then 2 μL of 2 μl different concentration of Cu^2+ were added. The signaling kinetics were monitored (Ex=635 nm; Em=666 nm) using Hitachi fluorimeter. For Cu^2+ sensor, the DNAzyme complex was formed by annealing the 5 μM of Cu2 PSrS FAM and 7.5 μM Cu2 aE Q in 50 mM MES, 25 mM NaCl, pH 6.0. For each well, 2 μL of the annealed sensor was diluted into 196 μL of buffer (50 mM MES, 25 mM NaCl, pH 6.0). 2 μL different concentration of Cu^2+ were added to initiate cleavage reaction, and the signaling kinetics were monitored (Ex=488 nm; Em=520 nm) using Hitachi fluorimeter.

[2] = Gel based activity assay of Cu^2+ DNAzyme
Procedure: (§2) FIG. 10 depicts gel and fluorescence-based activity assay for Cu^+ and Cu^2+ DNAzyme. PAGE Gel images of Cu^+ DNAzyme cleaving the substrate in the presence of various concentrations of Cut. Lane 1: Cu^+ aS, Lane 2: Cu^+ aE, Lane 3-10: the concentration of Cu^2+ is 0 nM, 125 nM, 250 nM, 500 nM, 1 μM, 2 μM, 4 μM, and 8 μM, respectively, the concentration of ascorbate is 50 μM. Quantification of Cu^+. Inset is the linear response at low Cu^+ concentrations. denaturing gel images of Cu^2+ DNAzyme cleaving the substrate in the presence of various concentrations of Cu^2+. Lane1-8: the concentration of Cu^2+ is 0 μM, 1 μM, 2 μM, 4 μM, 6 μM, 8 μM, 10 μM, and 20 μM, respectively. Quantification of Cu^2+. Inset: the linear response at low Cu^2+ concentrations.
(§3) Gel based activity assays: For Cu^+ DNAzyme, 1 μM of Cu1 aS and 2 μM of Cu1 aE were added in 50 mM Bis-Tris, 150 mM NaCl, pH 7.5. The solution was heated at 90° C. for 5 min and slowly cooled down to room temperature for more than 1 h to anneal the DNAzyme. After annealing, each sample contains a final of 5 μL of 0.25 μM DNAzyme complex. 2 ul of 50 μM of freshly prepared ascorbate was mixed with DNAzyme complex. After adding 2 μl different concentration of Cu^2+, incubated at room temperature for 60 min. […] The gels were analyzed with Bio-Rad Gel Doc 2000 imaging system.

[3] = Gel based activity assay of Cu^+ DNAzyme
Procedure: as §2, §3

[4] = Fluorescence based activity assay of Cu^+ sensor; settings: fluorescence at 666 nm, 30 min
Procedure: as §1

| Molecule | detection limit [1] [nM] | activity with high ascorbic [2] | selectivity between copper oxidation states [2] | selectivity between copper oxidation states [3] | cleavage dependence on ascorbic ([3]; no cleavage products at low concentrations of ascorbic) | detection limit [4] [nM] |
| --- | --- | --- | --- | --- | --- | --- |
| Cu^2+ DNAzyme: substrate strand Cu2 PSrS annealed with enzyme strand Cu2 aE (chain 1 dAdGdTdCdAdCdTdAdTrA*dGdGdAdAdGdAdTdGdGdCdGdAdAdA; chain 2 TTTCGCCATCTTCACCAGGAAATAGTGACT; chain 2: unmodified DNA) | 35.16 | no activity | excellent selectivity |  |  |  |
| B1 |  |  |  | excellent selectivity | ascorbic concentration dependent cleavage | 53.92 |
